Consider 21 molecules from patent US12410160B2 (Gilead Sciences, Inc., priority 2021, dated 2025).

SMILES strings stand for the structures. Like-named read-outs stand apart in the source and are kept apart here.

Assay [1] has as its target human KHK-C (Homo sapiens (Human), UniProt P50053). Description: KHK Biochemical Assay (IC50), ADP-Glo, KHK-C. The conditions noted are these: average of at least two separate assays. The method, boiled down: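 Luminescent ADP-Glo read-out of ADP made by His-tagged KHK (BL21 (DE3) expression, Ni-NTA). Enzyme and compound sat together 30 min before ATP/fructose addition, then reacted 4 h at RT in Hepes pH 7.4 buffer with KCl, MgCl2, Triton-X. Quench 1 h, detection 1 h.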
For orientation: ADP-Glo first removes unused ATP, then detects ADP through luciferase.

For assay [2], the system named is HepG2 cells. Description: F1P Cell-Based Assay (EC50), 13C6-fructose-1-phosphate in HepG2 cells (cell culture medium or 50% human plasma).
Setting [3] is: Homo sapiens, HepG2, HepG2 cells, 50% human plasma, read-out: F1P 50% HP EC50.
Setting [4] is: Homo sapiens, HepG2, read-out: F1P 10% FBS EC50, HepG2 cells, cell culture medium (10% FBS).
Where [5] appears, read: HepG2 cells, 50% human plasma, read-out: F1P 50% HP EC50.
The mark [6] stands for this setting: read-out: F1P 10% FBS EC50, HepG2 cells, cell culture medium (10% FBS).

Sequence of human KHK-C (P50053 whole entry): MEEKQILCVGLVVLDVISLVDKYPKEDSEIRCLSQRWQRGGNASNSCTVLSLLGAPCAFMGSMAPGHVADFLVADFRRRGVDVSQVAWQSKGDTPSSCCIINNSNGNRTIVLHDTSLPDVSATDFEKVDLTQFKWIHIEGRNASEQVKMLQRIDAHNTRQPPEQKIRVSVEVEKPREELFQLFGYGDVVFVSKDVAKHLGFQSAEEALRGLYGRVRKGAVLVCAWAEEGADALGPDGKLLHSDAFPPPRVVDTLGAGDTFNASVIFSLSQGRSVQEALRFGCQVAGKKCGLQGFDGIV

In assay [1], `COc1cc(-c2nc(N3C[C@@H](O)[C@@H]3C)nc3c2CCC3(F)F)cc2c1C(NS(C)(=O)=O)CO2` (stereo partly drawn) [Example 477, N-(6-(7,7-difluoro-2-((2S,3R)-3-hydroxy-2-methylazetidin-1-yl)-6,7-dihydro-5H-cyclopenta[d]pyrimidin-4-yl)-4-methoxy-2,3-dihydrobenzofuran-3-yl)methanesulfonamide] registered an IC50 of 0.0004 µM. The EC50 in assay [2] (setting [3]) turned out to be 0.0259 µM; in assay [2] (setting [4]) it was 0.006 µM.
For `[2H]C1([2H])[C@@H](O)[C@H](C)N1c1nc(-c2ccc3c(c2)OC[C@@H]3NS(C)(=O)=O)c2c(n1)C(F)(F)CC2` [Example 480, N—((R)-6-(7,7-difluoro-2-((2S,3R)-3-hydroxy-2-methylazetidin-1-yl-4,4-d2)-6,7-dihydro-5H-cyclopenta[d]pyrimidin-4-yl)-2,3-dihydrobenzofuran-3-yl)methanesulfonamide] the same measures were 0.0006 µM, 0.0237 µM and 0.0094 µM.
In assay [1], `C[C@H]1[C@H](O)CN1c1nc(-c2ccc3c(c2)OCC32COC(=O)N2)c2c(n1)C(F)(F)CC2` (stereo partly drawn) [Example 481, 6-(7,7-difluoro-2-((2S,3R)-3-hydroxy-2-methylazetidin-1-yl)-6,7-dihydro-5H-cyclopenta[d]pyrimidin-4-yl)-2H-spiro[benzofuran-3,4′-oxazolidin]-2′-one] returned an IC50 of 0.0003 µM. Moreover, the EC50 in assay [2] (setting [3]) is 0.043 µM; in assay [2] (setting [4]), 0.0066 µM.
On to `C[C@H]1CCN1c1nc2c(c(-c3cnc(C4(N)COC4)cn3)n1)CCC2` [Example 507, (S)-3-(5-(2-(2-methylazetidin-1-yl)-6,7-dihydro-5H-cyclopenta[d]pyrimidin-4-yl)pyrazin-2-yl)oxetan-3-amine], for which half-maximal inhibition in assay [1] (IC50) required 0.0736 µM. The EC50 was found to be 0.247 µM in assay [2] (setting [3]) and 0.138 µM in assay [2] (setting [4]).
For `CN=S(C)(=O)c1cccc(-c2nc(N3C[C@@H](O)[C@@H]3C)nc3c2CCC3(F)F)c1` (stereo partly drawn) [Example 508, (3-(7,7-difluoro-2-((2S,3R)-3-hydroxy-2-methylazetidin-1-yl)-6,7-dihydro-5H-cyclopenta[d]pyrimidin-4-yl)phenyl)(methyl)(methylimino)-λ^6-sulfanone] the same measures were 0.0612 µM, 0.255 µM and 0.126 µM.
For `C[C@H]1[C@H](O)CN1c1nc(-c2cccc(S(C)(=O)=O)c2)c2c(n1)C(F)(F)CC2` [Example 509, (2S,3R)-1-(7,7-difluoro-4-(3-(methylsulfonyl)phenyl)-6,7-dihydro-5H-cyclopenta[d]pyrimidin-2-yl)-2-methylazetidin-3-ol] the same measures were 0.0199 µM, 0.0581 µM and 0.0251 µM.
For `CCS(=N)(=O)c1cccc(-c2nc(N3C[C@@H](O)[C@@H]3C)nc3c2CCC3(F)F)c1` (stereo partly drawn) [Example 511, (3-(7,7-difluoro-2-((2S,3R)-3-hydroxy-2-methylazetidin-1-yl)-6,7-dihydro-5H-cyclopenta[d]pyrimidin-4-yl)phenyl)(ethyl)(imino)-λ^6-sulfanone] the same measures were 0.0209 µM, 0.0461 µM and 0.0346 µM.
`C[C@H]1[C@H](O)CN1c1nc(-c2ccc(C3(N)COC3)c(C(F)(F)F)c2)c2c(n1)C(F)(F)CC2` [Example 514, (2S,3R)-1-(4-(4-(3-aminooxetan-3-yl)-3-(trifluoromethyl)phenyl)-7,7-difluoro-6,7-dihydro-5H-cyclopenta[d]pyrimidin-2-yl)-2-methylazetidin-3-ol] yielded an IC50 in assay [1] of 0.0106 µM. The values for the EC50 in assay [2] (setting [3]) and in assay [2] (setting [4]) were 0.0723 µM and 0.0416 µM, respectively.
The like results for `C[C@H]1[C@H](O)CN1c1nc(-c2ccc(C(F)(F)CN)cc2)c2c(n1)C(F)(F)CC2` [Example 515, (2S,3R)-1-(4-(4-(2-amino-1,1-difluoroethyl)phenyl)-7,7-difluoro-6,7-dihydro-5H-cyclopenta[d]pyrimidin-2-yl)-2-methylazetidin-3-ol] were, in that order, 0.0297 µM, 0.126 µM and 0.0591 µM.
For `C[C@@H]1N(c2nc(-c3ccc4c(c3)CCNC43COC3)c3c(n2)C(F)(F)CC3)CC1(F)F` [Example 519, (S)-6-(2-(3,3-difluoro-2-methylazetidin-1-yl)-7,7-difluoro-6,7-dihydro-5H-cyclopenta[d]pyrimidin-4-yl)-3,4-dihydro-2H-spiro[isoquinoline-1,3′-oxetane]], inhibition in assay [1] was half-maximal at 0.0022 µM (IC50). Also, the EC50 in assay [2] (setting [3]) stood at 0.023 µM; in assay [2] (setting [4]) it was 0.0101 µM.
For `C[C@H]1[C@H](O)CN1c1nc(-c2ccc3c(c2)C2CC(C2)NC3=O)c2c(n1)C(F)(F)CC2` [Example 520, 7-(7,7-difluoro-2-((2S,3R)-3-hydroxy-2-methylazetidin-1-yl)-6,7-dihydro-5H-cyclopenta[d]pyrimidin-4-yl)-2,3,4,5-tetrahydro-1H-3,5-methanobenzo[c]azepin-1-one] the same measures were 0.0111 µM, 0.109 µM and 0.0498 µM.
For `C[C@H]1[C@H](O)CN1c1nc(-c2ccc3c(c2)OCCNC32COC2)c2c(n1)C(F)(F)CC2` [Example 521, (2S,3R)-1-(4-(3,4-dihydro-2H-spiro[benzo[f][1,4]oxazepine-5,3′-oxetan]-8-yl)-7,7-difluoro-6,7-dihydro-5H-cyclopenta[d]pyrimidin-2-yl)-2-methylazetidin-3-ol] the same measures were 0.0098 µM, greater than 0.1 µM and 0.0684 µM.
For `C[C@H]1CCN1c1nc2c(c(-c3ccc(Cl)c(S(N)(=O)=O)c3)n1)CCC2` [Example 522, (S)-2-chloro-5-(2-(2-methylazetidin-1-yl)-6,7-dihydro-5H-cyclopenta[d]pyrimidin-4-yl)benzenesulfonamide] the same measures were 0.0445 µM, 0.455 µM and 0.0533 µM.
Take `C[C@H]1[C@H](F)CN1c1nc(-c2ccc3c(c2)OC[C@@H]3NS(C)(=O)=O)c2c(n1)C(F)(F)CC2` [Example 523, N—((R)-6-(7,7-difluoro-2-((2S,3R)-3-fluoro-2-methylazetidin-1-yl)-6,7-dihydro-5H-cyclopenta[d]pyrimidin-4-yl)-2,3-dihydrobenzofuran-3-yl)methanesulfonamide]: in assay [1], the IC50 was found to be 0.0007 µM. Also, the EC50 in assay [2] (setting [3]) was 0.0513 µM; in assay [2] (setting [4]), 0.0051 µM.
For `C[C@H]1[C@@H](F)CN1c1nc(-c2ccc3c(c2)OC[C@@H]3NS(C)(=O)=O)c2c(n1)C(F)(F)CC2` [Example 524, N—((R)-6-(7,7-difluoro-2-((2S,3S)-3-fluoro-2-methylazetidin-1-yl)-6,7-dihydro-5H-cyclopenta[d]pyrimidin-4-yl)-2,3-dihydrobenzofuran-3-yl)methanesulfonamide] the same measures were 0.001 µM, 0.0601 µM and 0.0082 µM.
As to `COc1cc(-c2nc(N3C[C@@H](O)[C@@H]3C)nc3c2CCC3(F)F)cc2c1[C@@H](NS(C)(=O)=O)CO2` [Example 529, N-(6-(7,7-difluoro-2-((2S,3R)-3-hydroxy-2-methylazetidin-1-yl)-6,7-dihydro-5H-cyclopenta[d]pyrimidin-4-yl)-4-methoxy-2,3-dihydrobenzofuran-3-yl)methanesulfonamide], the midpoint of inhibition in assay [1], the IC50, lay at 0.0027 µM. The EC50 in assay [2] (setting [5]) was 0.0653 µM; in assay [2] (setting [6]), 0.0262 µM.
With `COc1cc(-c2nc(N3C[C@@H](O)[C@@H]3C)nc3c2CCC3(F)F)cc2c1[C@@H](NS(C)(=O)=O)CO2` [Example 530], the IC50 in assay [1] came to 0.0015 µM. Besides, the EC50 in assay [2] (setting [5]) came out at 0.142 µM; in assay [2] (setting [6]), 0.0297 µM.
In assay [1], `C[C@H]1[C@H](O)CN1c1nc(-c2ccc3c(c2)CCCCC3NS(C)(=O)=O)c2c(n1)C(F)(F)CC2` (stereo partly drawn) [Example 547, N-(2-(7,7-difluoro-2-((2S,3R)-3-hydroxy-2-methylazetidin-1-yl)-6,7-dihydro-5H-cyclopenta[d]pyrimidin-4-yl)-6,7,8,9-tetrahydro-5H-benzo[7]annulen-5-yl)methanesulfonamide] returned an IC50 of 0.0336 µM. Besides, the EC50 was greater than 0.5 µM in assay [2] (setting [3]) and 0.314 µM in assay [2] (setting [4]).
For `C[C@H]1[C@H](F)CN1c1nc(-c2ccc3c(c2)O[C@H](CO)CNC3=O)c2c(n1)C(F)(F)CC2` [Example 590, (S)-8-(7,7-difluoro-2-((2S,3R)-3-fluoro-2-methylazetidin-1-yl)-6,7-dihydro-5H-cyclopenta[d]pyrimidin-4-yl)-2-(hydroxymethyl)-3,4-dihydrobenzo[f][1,4]oxazepin-5(2H)-one] the same measures were 0.0018 µM, 0.0232 µM and 0.0091 µM.
For `CCC1CNC(=O)c2ccc(-c3nc(N4C[C@@H](O)[C@@H]4C)nc4c3CCC4(F)F)cc2O1` (stereo partly drawn) [Example 591, 8-(7,7-difluoro-2-((2S,3R)-3-hydroxy-2-methylazetidin-1-yl)-6,7-dihydro-5H-cyclopenta[d]pyrimidin-4-yl)-2-ethyl-3,4-dihydrobenzo[f][1,4]oxazepin-5(2H)-one] the same measures were 0.0055 µM, 0.036 µM and 0.0135 µM.
For `C[C@H]1[C@H](O)CN1c1nc(-c2ccc3c(c2)OC(CF)CNC3=O)c2c(n1)C(F)(F)CC2` (stereo partly drawn) [Example 594, 8-(7,7-difluoro-2-((2S,3R)-3-hydroxy-2-methylazetidin-1-yl)-6,7-dihydro-5H-cyclopenta[d]pyrimidin-4-yl)-2-(fluoromethyl)-3,4-dihydrobenzo[f][1,4]oxazepin-5(2H)-one] the same measures were 0.0033 µM, 0.021 µM and 0.0126 µM.

By IC50 is commonly meant the point on the concentration scale where inhibition reaches its midpoint. The term EC50 denotes the concentration needed to bring the measured effect to its halfway point.
